IC50 data for 40 molecules are collected here from patent US10550105B2 (Ribon Therapeutics Inc., priority 2018, dated 2020).

Structures are written as SMILES.

PARP7, sequence (Q7Z3E1 whole entry): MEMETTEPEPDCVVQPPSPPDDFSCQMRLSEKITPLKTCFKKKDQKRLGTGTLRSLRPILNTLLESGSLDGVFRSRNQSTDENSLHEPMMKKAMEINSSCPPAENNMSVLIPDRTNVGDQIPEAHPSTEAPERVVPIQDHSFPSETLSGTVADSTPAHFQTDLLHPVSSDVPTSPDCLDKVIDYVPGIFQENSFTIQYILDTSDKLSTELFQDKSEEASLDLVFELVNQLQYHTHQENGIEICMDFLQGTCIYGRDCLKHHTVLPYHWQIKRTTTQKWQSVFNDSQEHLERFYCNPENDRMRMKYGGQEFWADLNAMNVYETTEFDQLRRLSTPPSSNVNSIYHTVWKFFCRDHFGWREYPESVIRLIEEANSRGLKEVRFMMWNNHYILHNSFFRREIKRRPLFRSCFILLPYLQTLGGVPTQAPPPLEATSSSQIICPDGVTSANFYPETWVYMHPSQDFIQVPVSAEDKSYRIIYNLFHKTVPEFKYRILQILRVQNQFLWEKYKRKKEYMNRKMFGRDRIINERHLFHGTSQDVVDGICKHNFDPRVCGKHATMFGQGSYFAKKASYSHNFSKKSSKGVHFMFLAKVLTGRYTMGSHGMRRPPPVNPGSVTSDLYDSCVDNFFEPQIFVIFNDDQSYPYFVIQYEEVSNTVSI

The test concerns the target PARP7 (Homo sapiens (Human), UniProt Q7Z3E1). Kind of test: Enzymatic assay for inhibition of PARP7: TR-FRET displacement of biotinylated Probe A from the TIPARP active site. The test is classed as binding. The settings on record: Table A-1. The gist of the method: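 Read-out: 665/615 nm emission ratio (ex 320 nm, 90 μs delay) indexing bound TIPARP–Probe A. Final incubation 30 min, 25° C; compounds in dose response. Curve fit of % inhibition vs concentration; Hill slope floating or fixed at 1 (3-parameter).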
A general note: Time-resolved FRET reads energy transfer from a long-lived donor to a nearby acceptor.
By IC50 is commonly meant the concentration needed to halve the response being measured. A higher IC50 goes with a need for much substance. Turning to `O=c1[nH]ncc(N2Cc3ccccc3C2CO)c1C(F)(F)F` (stereo not shown) [Example 235, 5-(1-(Hydroxymethyl)isoindolin-2-yl)-4-(trifluoromethyl)pyridazin-3(2H)-one], the half-maximal inhibitory concentration (IC50) was at least 1 µM.

On to `O=c1[nH]ncc(N2Cc3cccnc3C2)c1C(F)(F)F` [Example 236, 5-(5,7-Dihydro-6H-pyrrolo[3,4-b]pyridin-6-yl)-4-(trifluoromethyl)pyridazin-3(2H)-one], for which the 50% inhibitory concentration (IC50) was under 0.1 µM.

The molecule `CN1CCC(Oc2ccc3c(c2)CN(c2cn[nH]c(=O)c2C(F)(F)F)C3)C1` (stereo not shown) [Example 238, 5-(5-((1-Methylpyrrolidin-3-yl)oxy)isoindolin-2-yl)-4-(trifluoromethyl)pyridazin-3(2H)-one] came in with an IC50 of under 0.1 µM.

As to `COCC1c2ccccc2CN1c1cn[nH]c(=O)c1C(F)(F)F` (stereo not shown) [Example 239, 5-(1-(Methoxymethyl)isoindolin-2-yl)-4-(trifluoromethyl)pyridazin-3(2H)-one], the IC50 is at least 1 µM.

`O=c1[nH]ncc(N2Cc3cccc(OCCN4CCOCC4)c3C2)c1Cl` [Example 240, 4-Chloro-5-(4-(2-morpholinoethoxy)isoindolin-2-yl)pyridazin-3(2H)-one] gave a half-maximal inhibitory concentration (IC50) of 0.1 to 1 µM.

Turning to `CC(=O)NCCOc1cccc2c1CN(c1cn[nH]c(=O)c1Cl)C2` [Example 241, N-(2-((2-(5-Chloro-6-oxo-1,6-dihydropyridazin-4-yl)isoindolin-4-yl)oxy)ethyl)acetamide], the half-inhibitory concentration (IC50) was in the range of 0.1 to 1 µM.

`O=c1[nH]ncc(N2Cc3cccc(OC4CCNC4)c3C2)c1Cl` (stereo not shown) [Example 242, 4-Chloro-5-(4-(pyrrolidin-3-yloxy)isoindolin-2-yl)pyridazin-3(2H)-one] came in with an IC50 of 0.1 to 1 µM.

Consider `CC(C)c1c(N2Cc3cccc(OCCO)c3C2)cn[nH]c1=O` [Example 243, 5-(4-(2-Hydroxyethoxy)isoindolin-2-yl)-4-isopropylpyridazin-3(2H)-one], for which the IC50 was at least 1 µM.

In turn, `O=c1[nH]ncc(N2Cc3ccc(OC4CCCNC4)cc3C2)c1C(F)(F)F` (stereo not shown) [Example 244, 5-(5-(Piperidin-3-yloxy)isoindolin-2-yl)-4-(trifluoromethyl)pyridazin-3(2H)-one] had a 50% inhibitory concentration (IC50) of 0.1 to 1 µM.

The molecule `O=c1[nH]ncc(N2Cc3cc(F)c(OCCO)cc3C2)c1C(F)(F)F` [Example 245, 5-(5-Fluoro-6-(2-hydroxyethoxy)isoindolin-2-yl)-4-(trifluoromethyl)pyridazin-3(2H)-one] returned a concentration for half-maximal inhibition (IC50) of under 0.1 µM.

`O=c1[nH]ncc(N2Cc3ccccc3[C@@H]2CO)c1C(F)(F)F` [Example 246, (R)-5-(1-(Hydroxymethyl)isoindolin-2-yl)-4-(trifluoromethyl)pyridazin-3(2H)-one] displayed an IC50 of at least 1 µM.

Turning to `O=c1[nH]ncc(N2Cc3ccccc3[C@H]2CO)c1C(F)(F)F` [Example 247, (S)-5-(1-(Hydroxymethyl)isoindolin-2-yl)-4-(trifluoromethyl)pyridazin-3(2H)-one], the 50% inhibitory concentration (IC50) is at least 1 µM.

`CC(C)c1c(N2Cc3cccc(OC4CCNCC4)c3C2)cn[nH]c1=O` [Example 248, 4-Isopropyl-5-(4-(piperidin-4-yloxy)isoindolin-2-yl)pyridazin-3(2H)-one] registered an IC50 of at least 1 µM.

For the molecule `CC1c2ccccc2CN1c1cn[nH]c(=O)c1C(F)(F)F` (stereo not shown) [Example 249, 5-(1-Methylisoindolin-2-yl)-4-(trifluoromethyl)pyridazin-3(2H)-one], the IC50 lay in the range of 0.1 to 1 µM.

The molecule `C[C@H]1c2ccccc2CN1c1cn[nH]c(=O)c1C(F)(F)F` [Example 250, (S)-5-(1-Methylisoindolin-2-yl)-4-(trifluoromethyl)pyridazin-3(2H)-one] yielded an IC50 of 0.1 to 1 µM.

For the molecule `C[C@@H]1c2ccccc2CN1c1cn[nH]c(=O)c1C(F)(F)F` [Example 251, (R)-5-(1-Methylisoindolin-2-yl)-4-(trifluoromethyl)pyridazin-3(2H)-one], the 50% inhibitory concentration (IC50) was at least 1 µM.

The molecule `CC(Oc1cccc2c1CN(c1cn[nH]c(=O)c1C(F)(F)F)C2)c1ccncc1` (stereo not shown) [Example 252, 5-(4-(1-(Pyridin-4-yl)ethoxy)isoindolin-2-yl)-4-(trifluoromethyl)pyridazin-3(2H)-one] returned an IC50 of under 0.1 µM.

`O=c1[nH]ncc(N2Cc3cccc(N4CCOCC4)c3C2)c1C(F)(F)F` [Example 253, 5-(4-Morpholinoisoindolin-2-yl)-4-(trifluoromethyl)pyridazin-3(2H)-one]: the half-inhibitory concentration (IC50) fell in the range of 0.1 to 1 µM.

Turning to `O=c1[nH]ncc(N2Cc3cccc(NCC4CCCO4)c3C2)c1C(F)(F)F` (stereo not shown) [Example 254, 5-(4-(((Tetrahydrofuran-2-yl)methyl)amino)isoindolin-2-yl)-4-(trifluoromethyl)pyridazin-3(2H)-one], the IC50 lay in the range of 0.1 to 1 µM.

The molecule `CN1CCN(CCOc2cccc3c2CN(c2cn[nH]c(=O)c2Cl)C3)CC1` [Example 255, 4-Chloro-5-(4-(2-(4-methylpiperazin-1-yl)ethoxy)isoindolin-2-yl)pyridazin-3(2H)-one] came in with a half-inhibitory concentration (IC50) of at least 1 µM.

In the case of `O=c1[nH]ncc(N2Cc3cccc(OCCN4CCCCC4)c3C2)c1Cl` [Example 256, 4-Chloro-5-(4-(2-(piperidin-1-yl)ethoxy)isoindolin-2-yl)pyridazin-3(2H)-one], the IC50 was at least 1 µM.

In turn, `CN1CCC(Oc2cccc3c2CN(c2cn[nH]c(=O)c2Cl)C3)CC1` [Example 257, 4-Chloro-5-(4-((1-methylpiperidin-4-yl)oxy)isoindolin-2-yl)pyridazin-3(2H)-one] gave a concentration for half-maximal inhibition (IC50) of at least 1 µM.

In the case of `CC(=O)N1CCC(Oc2cccc3c2CN(c2cn[nH]c(=O)c2Cl)C3)CC1` [Example 258, 5-(4-((1-Acetylpiperidin-4-yl)oxy)isoindolin-2-yl)-4-chloropyridazin-3(2H)-one], the IC50 is at least 1 µM.

Turning to `CN1CCC(Oc2cccc3c2CN(c2cn[nH]c(=O)c2Cl)C3)C1` (stereo not shown) [Example 259, 4-Chloro-5-(4-((1-methylpyrrolidin-3-yl)oxy)isoindolin-2-yl)pyridazin-3(2H)-one], the IC50 was at least 1 µM.

With `COCc1cccc2c1CN(c1cn[nH]c(=O)c1C(F)(F)F)C2` [Example 260, 5-(4-(Methoxymethyl)isoindolin-2-yl)-4-(trifluoromethyl)pyridazin-3(2H)-one], the half-inhibitory concentration (IC50) was under 0.1 µM.

`O=c1[nH]ncc(N2Cc3cccc(CO)c3C2)c1C(F)(F)F` [Example 261, 5-(4-(Hydroxymethyl)isoindolin-2-yl)-4-(trifluoromethyl)pyridazin-3(2H)-one] gave an IC50 of 0.1 to 1 µM.

Molecule `CNCc1cccc2c1CN(c1cn[nH]c(=O)c1C(F)(F)F)C2` [Example 262, 5-(4-((Methylamino)methyl)isoindolin-2-yl)-4-(trifluoromethyl)pyridazin-3(2H)-one] displayed an IC50 of at least 1 µM.

The molecule `CN1CCC(Oc2ccc3c(c2)CN(c2cn[nH]c(=O)c2C(F)(F)F)C3)CC1` [Example 263, 5-(5-((1-Methylpiperidin-4-yl)oxy)isoindolin-2-yl)-4-(trifluoromethyl)pyridazin-3(2H)-one] returned a 50% inhibitory concentration (IC50) of under 0.1 µM.

For the molecule `CC(=O)NCC1c2ccccc2CN1c1cn[nH]c(=O)c1C(F)(F)F` (stereo not shown) [Example 264, N-((2-(6-Oxo-5-(trifluoromethyl)-1,6-dihydropyridazin-4-yl)isoindolin-1-yl)methyl)acetamide], the half-maximal inhibitory concentration (IC50) was at least 1 µM.

`O=c1[nH]ncc(N2Cc3cccc(Cl)c3C2)c1C(F)(F)F` [Example 265, 5-(4-Chloroisoindolin-2-yl)-4-(trifluoromethyl)pyridazin-3(2H)-one] displayed an IC50 of under 0.1 µM.

Molecule `O=c1[nH]ncc(N2Cc3cccc(NCc4ccncc4)c3C2)c1C(F)(F)F` [Example 266, 5-(4-((Pyridin-4-ylmethyl)amino)isoindolin-2-yl)-4-(trifluoromethyl)pyridazin-3(2H)-one] gave a 50% inhibitory concentration (IC50) of under 0.1 µM.

Molecule `COc1ccc(F)c2c1CN(c1cn[nH]c(=O)c1C(F)(F)F)C2` [Example 267, 5-(4-Fluoro-7-methoxyisoindolin-2-yl)-4-(trifluoromethyl)pyridazin-3(2H)-one] registered a half-inhibitory concentration (IC50) of under 0.1 µM.

With `O=c1[nH]ncc(N2Cc3cccc(OC4CCCOC4)c3C2)c1C(F)(F)F` (stereo not shown) [Example 268, 5-(4-((Tetrahydro-2H-pyran-3-yl)oxy)isoindolin-2-yl)-4-(trifluoromethyl)pyridazin-3(2H)-one], the IC50 was under 0.1 µM.

The molecule `NC(=O)c1cccc2c1CN(c1cn[nH]c(=O)c1C(F)(F)F)C2` [Example 269, 2-(6-Oxo-5-(trifluoromethyl)-1,6-dihydropyridazin-4-yl)isoindoline-4-carboxamide] displayed an IC50 of under 0.1 µM.

In the case of `CN(CC1CCCO1)c1cccc2c1CN(c1cn[nH]c(=O)c1C(F)(F)F)C2` (stereo not shown) [Example 270, 5-(4-(Methyl((tetrahydrofuran-2-yl)methyl)amino)isoindolin-2-yl)-4-(trifluoromethyl)pyridazin-3(2H)-one], the half-inhibitory concentration (IC50) is under 0.1 µM.

Consider `CC(Nc1cccc2c1CN(c1cn[nH]c(=O)c1C(F)(F)F)C2)c1ccncc1` (stereo not shown) [Example 271, 5-(4-((1-(Pyridin-4-yl)ethyl)amino)isoindolin-2-yl)-4-(trifluoromethyl)pyridazin-3(2H)-one], for which the concentration for half-maximal inhibition (IC50) is under 0.1 µM.

Molecule `CCc1c(N2Cc3cccc(OC4CCNCC4)c3C2)cn[nH]c1=O` [Example 272, 4-Ethyl-5-(4-(piperidin-4-yloxy)isoindolin-2-yl)pyridazin-3(2H)-one] displayed an IC50 of at least 1 µM.

As to `COc1cc(F)c2c(c1)CN(c1cn[nH]c(=O)c1C(F)(F)F)C2` [Example 273, 5-(4-Fluoro-6-methoxyisoindolin-2-yl)-4-(trifluoromethyl)pyridazin-3(2H)-one], the IC50 is under 0.1 µM.

As for `COc1cc(F)cc2c1CN(c1cn[nH]c(=O)c1C(F)(F)F)C2` [Example 274, 5-(6-Fluoro-4-methoxyisoindolin-2-yl)-4-(trifluoromethyl)pyridazin-3(2H)-one], the IC50 was under 0.1 µM.

In turn, `NCC1c2ccccc2CN1c1cn[nH]c(=O)c1C(F)(F)F` (stereo not shown) [Example 275, 5-(1-(Aminomethyl)isoindolin-2-yl)-4-(trifluoromethyl)pyridazin-3(2H)-one] came in with a half-inhibitory concentration (IC50) of at least 1 µM.
